Activity calls are given as the source filed them.
Assays:
[1] = Shn3 3'UTR reporter inhibitors, dose response, cell-based, Clone20 osteoblasts, firefly luciferase, cherry-picked (AID 624132); type: functional;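 note: firefly luciferase luminescence from reporter carrying the Shn3 3'UTR in osteoblasts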
[2] = HepG2 cell cytotoxicity, dose response, cytotoxicity control for Shn3 inhibitor project, CellTiter-Glo, cherry-picked (AID 624134); type: functional, cell-based
[3] = control 3'UTR Renilla luciferase suppression, dose response, counter-screen for Shn3 inhibitor project, cell-based, Clone20-Shn3RL, cherry-picked (AID 624133); type: functional
Galanin receptor type 3 = target: T1, Galanin receptor type 3 (Homo sapiens, UniProt O60755); experiment: Fluorescence-based cell-based primary high throughput dose response assay to identify antagonists of the Galanin Receptor 3 (GalR3).; type: functional
T1 sequence (O60755 whole entry): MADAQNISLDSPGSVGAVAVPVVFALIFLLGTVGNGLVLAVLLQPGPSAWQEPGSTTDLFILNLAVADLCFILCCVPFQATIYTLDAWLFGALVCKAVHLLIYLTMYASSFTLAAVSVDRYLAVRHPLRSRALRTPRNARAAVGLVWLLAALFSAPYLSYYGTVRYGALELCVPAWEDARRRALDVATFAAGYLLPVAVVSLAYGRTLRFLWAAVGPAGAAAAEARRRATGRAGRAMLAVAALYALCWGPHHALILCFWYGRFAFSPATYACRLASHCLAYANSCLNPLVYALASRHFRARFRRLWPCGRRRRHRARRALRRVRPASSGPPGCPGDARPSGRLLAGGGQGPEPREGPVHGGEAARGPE

cells [4] = type: functional, cell-based; details: HEK-CNG
[5] = target: COUP transcription factor 2 (Homo sapiens, UniProt P24468); experiment: Luminescence-based cell-based high throughput dose response assay to identify inhibitors of COUP-TFII (NR2F2).; type: functional;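 note: HEK293 cells transiently cotransfected with COUP-TFII expression vector and reporter; luciferase reporter luminescence driven by COUP-TFII from the pX2-168 reporter plasmid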
Sequence of COUP transcription factor 2 (P24468 whole entry): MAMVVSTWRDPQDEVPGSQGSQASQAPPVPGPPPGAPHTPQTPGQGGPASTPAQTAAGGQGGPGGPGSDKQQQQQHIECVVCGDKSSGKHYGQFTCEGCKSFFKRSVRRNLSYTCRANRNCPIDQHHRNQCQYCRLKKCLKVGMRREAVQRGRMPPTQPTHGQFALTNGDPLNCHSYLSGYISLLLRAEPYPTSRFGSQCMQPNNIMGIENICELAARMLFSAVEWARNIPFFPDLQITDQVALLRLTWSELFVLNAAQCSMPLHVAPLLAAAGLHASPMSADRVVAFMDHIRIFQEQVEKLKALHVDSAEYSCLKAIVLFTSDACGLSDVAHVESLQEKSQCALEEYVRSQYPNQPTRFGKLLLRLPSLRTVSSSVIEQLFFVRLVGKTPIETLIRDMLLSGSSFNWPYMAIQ

[6] = reduction of Shn3 3'UTR firefly luciferase signal, dose response, Schnurri-3 inhibitor project, cell-based, Clone20 osteoblasts, cherry-pick, set 2 (AID 720490); type: functional;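 note: actives lower the luminescence signal as inhibitors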
[7] = T. cruzi growth inhibition in host cells, dose response, cell-based, plate reader, dry powder, set 2 (AID 652275); type: functional
[8] = A375 melanoma cell viability loss, dose response, counter-screen for MITF inhibitor project, CellTiter-Glo luminescence, dry powder, set 4 (AID 624364); type: functional, cell-based; details: A-375;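 note: A375 melanoma cells are MITF independent so this is a counter screen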
[9] = A375 melanoma cell cytotoxicity, dose response, counter-screen for MITF inhibitor project, CellTiter-Glo luminescence, dry powder, set 2 (AID 624489); type: functional, cell-based; details: A-375;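 note: actives are compounds lowering A375 viability meaning general cytotoxicity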
cells [10] = details: A549
[11] = human group III sPLA2 inhibitors, dose response, biochemical, QFRET, IC50 (AID 743457);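 note: green fluorescence rise as the enzyme cleaves BODIPY PC-A2 in liposomes; potency for inhibition of the enzyme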
[12] = HEK293 cell cytotoxicity, dose response, cytotoxicity control, ATP luminescence, dry powder, Set6 (AID 743142); type: functional, cell-based
[13] = A549 cell cytotoxicity, dose response, cytotoxicity control, CellTiter-Glo luminescence, dry powder, set 3 (AID 743146); type: functional, cell-based
[14] = target: Potassium channel subfamily K member 3 (Rattus norvegicus, UniProt O54912); experiment: SAR analysis for the identification of selective inhibitors of the two-pore domain potassium channel TASK1(KCNK3):Automated Electrophysiology.; type: functional
Sequence of Potassium channel subfamily K member 3 (Rattus norvegicus, UniProt O54912) (O54912 whole entry, the tested form may be a part): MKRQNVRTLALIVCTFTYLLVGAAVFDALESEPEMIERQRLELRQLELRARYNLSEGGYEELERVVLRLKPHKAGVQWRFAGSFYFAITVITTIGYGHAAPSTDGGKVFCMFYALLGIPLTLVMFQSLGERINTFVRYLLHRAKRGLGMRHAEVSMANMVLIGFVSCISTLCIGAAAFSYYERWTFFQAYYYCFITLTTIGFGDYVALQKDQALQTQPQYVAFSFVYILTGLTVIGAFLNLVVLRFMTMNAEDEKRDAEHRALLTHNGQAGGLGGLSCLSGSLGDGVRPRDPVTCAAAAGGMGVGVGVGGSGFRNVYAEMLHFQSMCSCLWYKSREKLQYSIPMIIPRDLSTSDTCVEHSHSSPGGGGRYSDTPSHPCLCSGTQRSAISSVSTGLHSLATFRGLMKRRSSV

[15] = target: Potassium channel subfamily K member 3 (Homo sapiens, UniProt O14649); experiment: TASK1 (KCNK3) potassium channel inhibitors, SAR follow-up, CHO cells, FluxOR thallium flux (AID 652212); type: functional
Sequence of Potassium channel subfamily K member 3 (Homo sapiens, UniProt O14649) (O14649 whole entry): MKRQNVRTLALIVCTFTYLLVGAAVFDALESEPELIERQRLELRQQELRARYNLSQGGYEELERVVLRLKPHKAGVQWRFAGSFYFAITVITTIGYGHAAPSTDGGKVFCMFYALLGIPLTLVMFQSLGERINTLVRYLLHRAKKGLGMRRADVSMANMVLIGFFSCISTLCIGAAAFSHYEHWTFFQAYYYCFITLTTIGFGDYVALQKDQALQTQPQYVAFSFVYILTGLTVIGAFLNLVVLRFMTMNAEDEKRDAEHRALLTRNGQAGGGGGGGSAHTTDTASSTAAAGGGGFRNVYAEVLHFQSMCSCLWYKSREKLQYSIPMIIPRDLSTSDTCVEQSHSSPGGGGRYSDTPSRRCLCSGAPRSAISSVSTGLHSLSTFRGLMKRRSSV

cells [16] = type: functional, cell-based
[17] = target: T2, Trace amine-associated receptor 1 (Homo sapiens, UniProt Q96RJ0); experiment: Fluorescence-based cell-based high throughput dose response assay to identify agonists of the human trace amine associated receptor 1 (TAAR1).; type: functional
T2 sequence (Q96RJ0 whole entry): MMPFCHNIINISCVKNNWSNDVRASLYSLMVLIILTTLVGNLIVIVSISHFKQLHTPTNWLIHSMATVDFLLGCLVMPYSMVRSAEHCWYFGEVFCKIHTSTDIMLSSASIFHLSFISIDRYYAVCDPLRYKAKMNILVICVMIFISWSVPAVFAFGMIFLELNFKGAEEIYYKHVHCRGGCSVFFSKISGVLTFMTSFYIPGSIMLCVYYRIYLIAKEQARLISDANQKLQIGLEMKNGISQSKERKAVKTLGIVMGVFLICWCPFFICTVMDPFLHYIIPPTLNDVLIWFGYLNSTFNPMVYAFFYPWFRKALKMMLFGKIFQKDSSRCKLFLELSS

[18] = target: T2, Trace amine-associated receptor 1; experiment: Counterscreen for agonists of the human trace amine associated receptor 1 (hTAAR1): Fluorescence-based cell-based high throughput dose response assay to identify hTAAR1 agonist that also desensitize TAAR1 receptor response.; type: functional
cells [19] = type: functional, cell-based; remark: listed apart in the source
[20] = target: T3, Scavenger receptor class B member 1 (Mus musculus, UniProt Q61009); experiment: inhibitors of SR-BI dependent HDL uptake, dose response, ldlA[mSR-BI] CHO cells, fluorescence plate reader, dry powder, set 9 (AID 623880); type: functional, cell-based
T3 sequence (Q61009 whole entry): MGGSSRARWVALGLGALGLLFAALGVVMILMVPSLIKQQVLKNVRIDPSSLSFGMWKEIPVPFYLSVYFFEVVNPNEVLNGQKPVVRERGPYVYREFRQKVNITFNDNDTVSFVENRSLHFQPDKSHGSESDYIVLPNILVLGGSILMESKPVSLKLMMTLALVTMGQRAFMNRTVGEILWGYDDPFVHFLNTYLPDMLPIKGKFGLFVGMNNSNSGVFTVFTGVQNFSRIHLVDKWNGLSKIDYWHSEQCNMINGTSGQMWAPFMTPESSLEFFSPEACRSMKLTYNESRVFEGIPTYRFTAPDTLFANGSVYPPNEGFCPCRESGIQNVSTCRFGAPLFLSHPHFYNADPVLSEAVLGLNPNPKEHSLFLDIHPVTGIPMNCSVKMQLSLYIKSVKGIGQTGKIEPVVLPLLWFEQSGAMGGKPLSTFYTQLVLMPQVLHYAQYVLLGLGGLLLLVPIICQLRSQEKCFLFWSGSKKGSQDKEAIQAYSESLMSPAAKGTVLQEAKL

[21] = target: T3, Scavenger receptor class B member 1; experiment: inhibitors of SR-BI-mediated HDL uptake, dose response, cell-based, ldlA[mSR-BI] CHO, DiI fluorescence, dry powder, set 10 (AID 624029); type: functional

Question: Which results are given for `O=C(CSc1nnc(-c2cccnc2)s1)Nc1ccnc2ccccc12`?
Answer: AC50 [1]: 0.661 µM (active); AC50 [2]: 39.3 µM (active); AC50 [3]: 2.34 µM (active); IC50 (Galanin receptor type 3): 1.18 µM (active); EC50 (cells [4]): > 29.9 µM (inactive); IC50 [5]: 5.33 µM (active); AC50 [6]: 1.19 µM (active)

Question: For `CN(C)C(=O)c1cccc(-c2ccc([C@H]3[C@@H](CO)N4CCCCN(C(=O)C5CCC5)C[C@@H]34)cc2)c1`, which AC50 [7] is on record?
Answer: Its AC50 is 1.06 µM (active).

Question: With `C=CCNC1=C(N2CCN(C)CC2)C(=O)c2ccccc2C1=O` as the compound, how does the AC50 [8] read?
Answer: Its AC50 is 34.4 µM (active).

Question: What about the AC50 [9] of the same compound?
Answer: Its AC50 is 15.9 µM (active).

Question: For `Cc1noc(C)c1-c1ccc(C(=O)NCCc2ccccc2)c2occc12`, which AC50 (cells [10]) is on record?
Answer: The AC50 was > 52 µM (inactive).

Question: Which IC50 [11] does the source give for `Cc1ccc(NC(S)=NNC(=O)CSc2nnc(-c3ccc(Cl)cc3)n2C2CCCCC2)cc1` here?
Answer: Its IC50 is > 40.6 µM (inactive).

Question: With `O=C(CCNC(=O)c1ccc(Cl)c(Cl)c1)N[C@@H]1CCCc2ccccc21` as the compound, how does the AC50 [12] read?
Answer: Its AC50 is 3.34 µM (active).

Question: And the AC50 [13]?
Answer: The AC50 was 26 µM (active).

Question: With `Cc1cccc(C(=O)Nc2cccc(NC(=O)c3ccncc3)c2)c1` as the compound, how does the IC50 [14] read?
Answer: Its IC50 is 2.14 µM (active).

Question: What about the IC50 [15] of the same compound?
Answer: The IC50 was 0.162 µM (active).

Question: Which results are given for `CN1CCNC(=O)C1CC(=O)NCCc1ccccc1F` (configuration not stated)?
Answer: IC50 (cells [16]): > 29.9 µM (inactive); EC50 [17]: 2.49 µM (active); IC50 [18]: 6.6 µM (active); EC50 (cells [19]): > 29.9 µM (inactive)

Question: Which AC50 [20] does the source give for `C[C@@H]1CN([C@H](C)CO)C(=O)c2cc(NC(=O)C3CCCCC3)ccc2O[C@H]1CN(C)S(=O)(=O)c1ccc(Cl)cc1` here?
Answer: The AC50 was 0.0686 µM (active).

Question: What about the AC50 [21] of the same compound?
Answer: Its AC50 is 0.0616 µM (active).

From ChEMBL document CHEMBL1201862, “PubChem BioAssay data set” (2004)
